In brackets after ≈: the same amount, converted by molar mass.
How the values were obtained:
Streptococcus faecalis = test: minimum inhibitory concentration, gradient plate method, Streptococcus faecalis; type: cell-based; design: key to partial resistancy, Bacteria, Str: partial resistancy observed; settings: for MIC: Enterococcus faecalis, 72 h, gradient 0-100 μg/ml, 10% aqueous dimethyl formamide, evaluated three days after inoculation, read-out: Minimum Inhibitory Concentration, Bacteria, Str
Description: (§1) Test evaluation was made three days after inoculation.

Aspergillus niger = test: minimum inhibitory concentration, gradient plate method, Aspergillus niger; type: cell-based; design: key to partial resistancy, Fungi, Asp: partial resistancy observed; settings: for MIC: 72 h, gradient 0-100 μg/ml, 10% aqueous dimethyl formamide, evaluated three days after inoculation, read-out: Minimum Inhibitory Concentration, Fungi, Asp
Description: as §1

[1] = tested on: Staphylococcus aureus haemolyticus; test: minimum inhibitory concentration, gradient plate method, Staphylococcus aureus haemolyticus; type: cell-based; design: key to partial resistancy, Bacteria, St: partial resistancy observed; settings: for MIC: 72 h, gradient 0-100 μg/ml, 10% aqueous dimethyl formamide, evaluated three days after inoculation, read-out: Minimum Inhibitory Concentration, Bacteria, St
Description: as §1

[2] = tested on: Trichophyton mentagrophytes; test: minimum inhibitory concentration, gradient plate method, Trichophyton mentagrophytes; type: cell-based; settings: 72 h, gradient 0-100 μg/ml, 10% aqueous dimethyl formamide, evaluated three days after inoculation, read-out: Minimum Inhibitory Concentration, Fungi, Tri
Description: as §1

in vivo = settings: mouse, po
Description: The results of these tests are summarized in the following Table I together with the oral toxicity values (LD50 per os; mice, values in mg per kg of body weight) determined in the conventional manner.

Row | Structure (SMILES) | MIC (Streptococcus faecalis) | MIC (Aspergillus niger) | MIC [1] | MIC [2] | LD50 (in vivo) | partial resistancy, Fungi, Asp (Aspergillus niger) | partial resistancy, Bacteria, Str (Streptococcus faecalis) | partial resistancy, Bacteria, St [1]
1 | Clc1ccc(OCCOC(Cn2ccnc2)c2ccc(Cl)cc2Cl)cc1 (stereo not drawn) [Example 28, 1-[β-(p-chlorophenoxyethoxy)-2,4-dichlorophenethyl)]-imidazole nitrate] | 10 µg/mL | < 10 µg/mL | < 10 µg/mL | < 10 µg/mL | > 3000 mg/kg |  |  | 
2 | CC(C(OCSc1ccc(Cl)cc1)c1ccc(Cl)cc1Cl)n1ccnc1 (stereo not drawn) [Example 25, 1-[β-(p-chlorophenylthiomethoxy)-2,4-dichlorophenethyl-α-methyl]-imidazole nitrate] | < 10 µg/mL |  | < 10 µg/mL | < 10 µg/mL | > 10000 mg/kg | r |  | 
3 | Clc1ccc(CSCOC(Cn2ccnc2)c2ccc(Cl)cc2Cl)cc1 (stereo not drawn) [Example 23, 1-β-(p-chlorobenzylthiomethoxy-2,4-dichlorophenethyl)-imidazole nitrate] |  | < 10 µg/mL | < 10 µg/mL | < 10 µg/mL | > 2000 mg/kg |  |  | 
4 | Clc1ccc(C(Cn2ccnc2)OCOc2ccccc2)c(Cl)c1 (stereo not drawn) [Example 2, 1-β-(phenoxymethoxy-2,4-dichlorophenethyl)-imidazole nitrate] | 25 µg/mL | < 10 µg/mL | 10 µg/mL | < 10 µg/mL | > 3000 mg/kg |  |  | 
5 | Clc1ccc(SCOC(Cn2ccnc2)c2ccc(Cl)cc2Cl)cc1 (stereo not drawn) [Example 13, 1-β-(4-chlorophenylthiomethoxy-2,4-dichlorophenethyl)-imidazole nitrate] | 10 µg/mL | < 10 µg/mL | 10 µg/mL | < 10 µg/mL | 3850 mg/kg |  |  | 
6 | Clc1ccc(OCCCSC(Cn2ccnc2)c2ccc(Cl)cc2Cl)cc1 (stereo not drawn) [Example 33, 1-{β-[3-(p-chlorophenoxy)-propylthio-2,4-dichlorophenethyl]}-imidazole] | 10 µg/mL (≈ 22.6 µM) | 25 µg/mL (≈ 56.6 µM) | < 10 µg/mL | < 10 µg/mL | > 1000 mg/kg |  |  | 
7 | CSCOC(Cn1ccnc1)c1ccc(Cc2ccc(Cl)cc2)cc1 (stereo not drawn) [Example 19, 1-[β-methylthiomethoxy-4-(4'-chlorobenzyl)-phenethyl]-imidazole nitrate] | 25 µg/mL | 10 µg/mL | 10 µg/mL | < 10 µg/mL | 970 mg/kg |  |  | 
8 | Clc1ccc(C(Cn2ccnc2)OCOc2ccccc2Cl)c(Cl)c1 (stereo not drawn) [Example 3, 1-β-(2-chlorophenoxymethoxy-2,4-dichlorophenethyl)-imidazole nitrate] | 15 µg/mL | < 10 µg/mL | < 10 µg/mL | < 10 µg/mL | > 3000 mg/kg |  |  | 
9 | Clc1ccc(C(Cn2ccnc2)OCCCOc2ccccc2)c(Cl)c1 (stereo not drawn) [Example 20, 1-β-(3-phenoxypropyloxy-2,4-dichlorophenethyl)-imidazole methane sulfonate] | < 10 µg/mL | < 10 µg/mL | < 10 µg/mL | < 10 µg/mL | ~2400 mg/kg |  |  | 
10 | Cc1ccc(OCOC(Cn2ccnc2)c2ccc(Cl)cc2Cl)cc1 (stereo not drawn) [Example 6, 1-β-(4-methylphenoxymethoxy-2,4-dichlorophenethyl)-imidazole nitrate] | 15 µg/mL | < 10 µg/mL | < 10 µg/mL | < 10 µg/mL | > 3000 mg/kg |  |  | 
11 | OCCSC(Cn1ccnc1)c1ccc(Cl)cc1Cl (stereo not drawn) [Example 18, 1-β-(2,4-dichlorophenethyl-β'-hydroxyethylthio)-imidazole nitrate] | 40 µg/mL |  | 50 µg/mL | 30 µg/mL | 1300 mg/kg |  |  | 
12 | Clc1ccc(OCOC(Cn2ccnc2)c2ccc(Cl)cc2Cl)cc1 (stereo not drawn) [Example 4, 1-β-(4-chlorophenoxymethoxy-2,4-dichlorophenethyl)-imidazole nitrate] | < 10 µg/mL | < 10 µg/mL | < 10 µg/mL | < 10 µg/mL | ~2750 mg/kg |  |  | 
13 | Clc1ccc(C(Cn2ccnc2)OCSC2CCCCC2)c(Cl)c1 (stereo not drawn) [Example 22, 1-[β-(cyclohexylthiomethoxy-2,4-dichlorophenethyl)]-imidazole nitrate] | < 10 µg/mL | < 10 µg/mL | < 10 µg/mL | < 10 µg/mL | > 3000 mg/kg |  |  | 
14 | Clc1ccc(SCCSC(Cn2ccnc2)c2ccc(Cl)cc2Cl)cc1 (stereo not drawn) [Example 21, 1-β-(4-chlorophenylthioethylthio-2,4-dichlorophenethyl)-imidazole] |  | < 10 µg/mL | < 10 µg/mL | < 10 µg/mL | > 3000 mg/kg |  |  | 
15 | Clc1ccc(SCCSC(Cn2ccnc2)c2ccc(Cl)cc2Cl)nc1 (stereo not drawn) [Example 29, 1-{β-[(5'-chloropyridyl-2'-thio-2-ethylthio)-2,4-dichlorophenethyl]}-imidazole] |  | < 10 µg/mL | < 10 µg/mL | < 10 µg/mL | > 2000 mg/kg |  |  | 
16 | Clc1ccc(SCCCSC(Cn2ccnc2)c2ccc(Cl)cc2Cl)cc1 (stereo not drawn) [Example 34, 1-{β-[3-(p-chlorophenylthiopropylthio)]-2,4-dichlorophenethyl}-imidazole nitrate] |  |  | 10 µg/mL | < 10 µg/mL | > 3000 mg/kg | r | r | 
17 | COCOC(Cn1ccnc1)c1ccc(Cl)cc1Cl (stereo not drawn) [Example 1, 1-β-(methoxy-methoxy-2,4-dichlorophenethyl)-imidazole nitrate] |  | < 10 µg/mL |  | < 10 µg/mL | 540 mg/kg |  |  | 
18 | Cc1ccc(SCOC(Cn2ccnc2)c2ccc(Cl)cc2Cl)cc1 (stereo not drawn) [Example 14, 1-β-(4-methylphenylthiomethoxy-2,4-dichlorophenethyl)-imidazole nitrate] | < 10 µg/mL | < 10 µg/mL | < 10 µg/mL | < 10 µg/mL | > 3000 mg/kg |  |  | 
19 | Clc1ccc(C(Cn2ccnc2)SCCCOc2ccccc2)c(Cl)c1 (stereo not drawn) [Example 32, 1-[β-(phenoxypropylthio)-2,4-dichlorophenethyl]-imidazole] |  | < 10 µg/mL | < 10 µg/mL | < 10 µg/mL | > 2000 mg/kg |  | r | 
20 | CSc1ccc(OCOC(Cn2ccnc2)c2ccc(Cl)cc2Cl)cc1 (stereo not drawn) [Example 8, 1-β-(4-methylthiophenoxymethoxy-2,4-dichlorophenethyl)-imidazole nitrate] |  | < 10 µg/mL | 10 µg/mL | < 10 µg/mL | ~2100 mg/kg |  |  | 
21 | Clc1ccc(C(Cn2ccnc2)OCSc2ccc(Cl)c(Cl)c2)c(Cl)c1 (stereo not drawn) [Example 15, 1-β-(3,4-dichlorophenylthiomethoxy-2,4-dichlorophenethyl)-imidazole nitrate] | < 10 µg/mL |  | < 10 µg/mL | < 10 µg/mL | ~7500 mg/kg | r |  | 
22 | Cc1cc(SCOC(Cn2ccnc2)c2ccc(Cl)cc2Cl)ccc1Br (stereo not drawn) [Example 16, 1-β-(4-bromo-3-methylphenylthiomethoxy-2,4-dichlorophenethyl)-imidazole nitrate] | 10 µg/mL | < 10 µg/mL | < 10 µg/mL | < 10 µg/mL | > 3000 mg/kg |  |  | 
23 | COc1ccccc1OCOC(Cn1ccnc1)c1ccc(Cl)cc1Cl (stereo not drawn) [Example 24, 1-β-(2-methoxyphenoxymethyloxy-2,4-dichlorophenethyl)-imidazole nitrate] |  | < 10 µg/mL |  | < 10 µg/mL | ~1350 mg/kg |  |  | r
24 | Clc1ccc(C(Cn2ccnc2)OCOc2ccc(-c3ccccc3)cc2)c(Cl)c1 (stereo not drawn) [Example 9, 1-β-(phenylphenoxymethoxy-2,4-dichlorophenethyl)-imidazole nitrate] |  |  |  |  | ~3500 mg/kg |  |  | 

Reference: US4177350A, “Imidazole ethyl oxyalkoxy derivatives and thio analogues thereof” (Siegfried Aktiengesellschaft, priority 1977, dated 1979)
